Experimental data: ChEMBL document CHEMBL1909046, “DrugMatrix in vitro pharmacology data”

How the values were obtained:
[1] = DRUGMATRIX: Glutamate, NMDA, Phencyclidine radioligand binding (ligand: [3H] TCP); assay type: cell membranes, Rattus norvegicus, Wistar, Cerebral cortex, Membrane; conditions: Not Active = under 50% inhibition at 10 µM
[2] = molecular target: Mitogen-activated protein kinase 3 (Homo sapiens, UniProt P27361); assay: DRUGMATRIX: Protein Serine/Threonine Kinase, ERK1 enzyme inhibition (substrate: Myelin Basic Protein); design: species or system Escherichia coli; conditions: Not Active = under 50% inhibition at 10 µM
Adenosine receptor A2a = Adenosine receptor A2a (Homo sapiens, UniProt P29274); assay: DRUGMATRIX: Adenosine A2A radioligand binding (ligand: […]); assay type: cell membranes, HEK293, Membrane; conditions: hek293; Not Active = under 50% inhibition at 10 µM
[3] = DRUGMATRIX: Glutamate, AMPA radioligand binding (ligand: [3H] AMPA); assay type: cell membranes, Rattus norvegicus, Wistar, Cerebral cortex, Membrane; conditions: Not Active = under 50% inhibition at 10 µM
[4] = molecular target: T1, Alpha-1B adrenergic receptor (Rattus norvegicus, UniProt P15823); assay: DRUGMATRIX: Alpha-1B adrenergic receptor radioligand binding (ligand: prazosin); assay type: cell membranes, Wistar, Liver, Membrane; conditions: Not Active = under 50% inhibition at 10 µM
T1 sequence (P15823 whole entry): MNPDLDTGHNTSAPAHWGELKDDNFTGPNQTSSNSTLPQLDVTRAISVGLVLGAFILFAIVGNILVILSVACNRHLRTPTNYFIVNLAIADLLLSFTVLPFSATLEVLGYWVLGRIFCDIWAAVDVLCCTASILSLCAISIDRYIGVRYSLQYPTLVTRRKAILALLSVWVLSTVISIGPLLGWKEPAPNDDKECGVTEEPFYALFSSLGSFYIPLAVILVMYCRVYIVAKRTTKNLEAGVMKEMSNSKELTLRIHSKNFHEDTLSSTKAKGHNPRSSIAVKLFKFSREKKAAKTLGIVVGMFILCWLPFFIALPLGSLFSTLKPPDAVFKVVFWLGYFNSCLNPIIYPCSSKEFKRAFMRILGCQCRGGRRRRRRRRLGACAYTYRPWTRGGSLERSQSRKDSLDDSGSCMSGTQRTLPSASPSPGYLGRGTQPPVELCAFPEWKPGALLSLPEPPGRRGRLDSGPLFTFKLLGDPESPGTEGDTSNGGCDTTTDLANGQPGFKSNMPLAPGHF

[5] = molecular target: Sodium-dependent noradrenaline transporter (Homo sapiens, UniProt P23975); assay: DRUGMATRIX: Norepinephrine Transporter radioligand binding (ligand: [125I] RTI-55); assay type: cell membranes, MDCK, Membrane; conditions: Not Active = under 50% inhibition at 10 µM; for Ki: read-out: Ki
Sequence of Sodium-dependent noradrenaline transporter (P23975 whole entry): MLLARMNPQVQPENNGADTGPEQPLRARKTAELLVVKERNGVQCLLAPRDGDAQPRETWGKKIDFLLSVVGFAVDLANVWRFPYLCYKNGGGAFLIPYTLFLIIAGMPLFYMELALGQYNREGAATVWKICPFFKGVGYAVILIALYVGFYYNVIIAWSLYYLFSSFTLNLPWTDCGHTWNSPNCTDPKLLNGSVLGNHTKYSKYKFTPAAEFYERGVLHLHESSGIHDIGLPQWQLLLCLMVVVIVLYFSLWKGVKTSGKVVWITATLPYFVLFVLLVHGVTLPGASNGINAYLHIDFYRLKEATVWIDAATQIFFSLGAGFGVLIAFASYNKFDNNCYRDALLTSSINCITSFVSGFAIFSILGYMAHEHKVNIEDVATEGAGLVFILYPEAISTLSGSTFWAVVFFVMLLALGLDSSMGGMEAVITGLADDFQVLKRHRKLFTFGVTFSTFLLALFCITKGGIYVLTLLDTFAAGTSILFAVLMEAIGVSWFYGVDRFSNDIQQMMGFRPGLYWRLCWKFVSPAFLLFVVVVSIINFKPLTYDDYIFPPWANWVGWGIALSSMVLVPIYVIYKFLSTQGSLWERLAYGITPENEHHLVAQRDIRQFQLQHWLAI

Sequence of Adenosine receptor A2a (P29274 whole entry): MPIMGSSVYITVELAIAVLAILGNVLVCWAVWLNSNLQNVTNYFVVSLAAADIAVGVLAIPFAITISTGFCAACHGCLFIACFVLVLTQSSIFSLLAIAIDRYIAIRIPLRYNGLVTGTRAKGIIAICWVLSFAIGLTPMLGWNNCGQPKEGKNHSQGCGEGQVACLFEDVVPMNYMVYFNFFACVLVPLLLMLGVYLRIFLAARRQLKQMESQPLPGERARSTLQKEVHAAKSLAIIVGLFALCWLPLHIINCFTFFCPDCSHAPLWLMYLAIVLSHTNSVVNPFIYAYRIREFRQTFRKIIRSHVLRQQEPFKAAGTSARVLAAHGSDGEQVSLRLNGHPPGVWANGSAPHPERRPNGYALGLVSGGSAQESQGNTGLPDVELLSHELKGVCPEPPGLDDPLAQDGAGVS
Sequence of Mitogen-activated protein kinase 3 (P27361 whole entry): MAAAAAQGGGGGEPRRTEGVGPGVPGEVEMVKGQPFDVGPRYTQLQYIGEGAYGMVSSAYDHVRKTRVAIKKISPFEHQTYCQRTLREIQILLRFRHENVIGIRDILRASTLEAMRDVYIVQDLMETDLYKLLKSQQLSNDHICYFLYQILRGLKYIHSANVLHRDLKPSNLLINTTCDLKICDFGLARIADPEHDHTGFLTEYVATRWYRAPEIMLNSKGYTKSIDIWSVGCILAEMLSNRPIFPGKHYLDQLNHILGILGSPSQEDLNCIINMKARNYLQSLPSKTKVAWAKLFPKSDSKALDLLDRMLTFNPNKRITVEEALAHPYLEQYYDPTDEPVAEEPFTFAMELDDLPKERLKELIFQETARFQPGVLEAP

Structure (SMILES) | IC50 [1] | Ki [1] | IC50 [2] | IC50 (Adenosine receptor A2a) | IC50 [3] | Ki [3] | IC50 [4] | IC50 ([5]; mdck) | IC50 ([5]; read-out: IC50) | Ki [5] | IC50 ([4]; read-out: IC50) | Ki ([4]; read-out: Ki)
CCCCCC[C@H]1C(=O)O[C@H](C)[C@H](NC(=O)c2cccc(NC=O)c2O)C(=O)O[C@@H](C)[C@@H]1OC(=O)CC(C)C [ANTIMYCIN A] | Not Active | Not Active | Not Active | Not Active | Not Active | Not Active | Not Active | Not Active | – | – | – | –
Oc1ccccc1O [CATECHOL] | Not Active | Not Active | Not Active | Not Active | Not Active | Not Active | Not Active | Not Active | – | – | – | –
Cc1c(F)c(N2CCNC(C)C2)cc2c1c(=O)c(C(=O)O)cn2C1CC1 (configuration not stated) [GREPAFLOXACIN] | Not Active | Not Active | Not Active | Not Active | Not Active | Not Active | Not Active | Not Active | – | – | – | –
[N-]=[N+]=CC(=O)OC[C@H](N)C(=O)O [AZASERINE] | Not Active | Not Active | Not Active | Not Active | Not Active | Not Active | Not Active | Not Active | – | – | – | –
CO[C@H]1[C@@H](O)[C@H](N)[C@@H](O[C@H]2O[C@H]([C@H](C)N)CC[C@H]2N)[C@H](O)[C@@H]1N(C)C(=O)CN [ASTROMICIN] | Not Active | Not Active | Not Active | Not Active | Not Active | Not Active | Not Active | Not Active | – | – | – | –
COc1ccc2cc(CCC(C)=O)ccc2c1 [NABUMETONE] | Not Active | Not Active | Not Active | Not Active | Not Active | Not Active | Not Active | – | 1870 nM | 1850 nM | – | –
NC(=O)N1c2ccccc2C=Cc2ccccc21 [CARBAMAZEPINE] | Not Active | Not Active | Not Active | Not Active | Not Active | Not Active | Not Active | Not Active | – | – | – | –
OCCN1CCN(CCCN2c3ccccc3Sc3ccc(Cl)cc32)CC1 [PERPHENAZINE] | Not Active | Not Active | Not Active | Not Active | Not Active | Not Active | Not Active | Not Active | – | – | – | –
CC[C@]1(O)CC[C@H]2[C@@H]3CCC4=CCCC[C@@H]4[C@H]3CC[C@@]21C | Not Active | Not Active | Not Active | Not Active | Not Active | Not Active | Not Active | – | 2100 nM | 2080 nM | – | –
CCOC(=O)n1ccn(C)c1=S [CARBIMAZOLE] | Not Active | Not Active | Not Active | Not Active | Not Active | Not Active | Not Active | Not Active | – | – | – | –
COc1ccc(Cc2nccc3cc(OC)c(OC)cc23)cc1OC [PAPAVERINE] | Not Active | Not Active | Not Active | Not Active | Not Active | Not Active | Not Active | Not Active | – | – | – | –
C[C@H]([C@](O)(Cn1cncn1)c1ccc(F)cc1F)S(C)(=O)=O [GENACONAZOLE] | Not Active | Not Active | Not Active | Not Active | Not Active | Not Active | Not Active | Not Active | – | – | – | –
CCOC(=O)C1=C(C)NC(C)=C(C(=O)OC)C1c1cccc(Cl)c1Cl (configuration not stated) [FELODIPINE] | Not Active | Not Active | Not Active | Not Active | Not Active | Not Active | Not Active | Not Active | – | – | – | –
CC(C)C[C@H]1C(=O)N2CCC[C@H]2[C@]2(O)O[C@](NC(=O)[C@@H]3C=C4c5cccc6[nH]c(Br)c(c56)C[C@H]4N(C)C3)(C(C)C)C(=O)N12 [BROMOCRIPTINE] | Not Active | Not Active | Not Active | Not Active | Not Active | Not Active | – | Not Active | – | – | 3.55 nM | 1.96 nM
CCOC(=O)[C@H](CCc1ccccc1)N[C@@H](C)C(=O)N1CCC[C@H]1C(=O)O | Not Active | Not Active | Not Active | Not Active | Not Active | Not Active | Not Active | Not Active | – | – | – | –
C[C@@H]1CC[C@H]2[C@@H](C)C(=O)O[C@@H]3O[C@@]4(C)CC[C@@H]1[C@]32OO4 [ARTEMISININ] | Not Active | Not Active | Not Active | Not Active | Not Active | Not Active | Not Active | Not Active | – | – | – | –
CN1C(=O)CN=C(c2ccccc2)c2cc(Cl)ccc21 [DIAZEPAM] | Not Active | Not Active | Not Active | Not Active | Not Active | Not Active | Not Active | Not Active | – | – | – | –
Nn1nnc2ccccc21 | Not Active | Not Active | Not Active | Not Active | Not Active | Not Active | Not Active | Not Active | – | – | – | –
CC(C)(CO)C(O)C(=O)NCCCO (configuration not stated) [PANTHENOL] | Not Active | Not Active | Not Active | Not Active | Not Active | Not Active | Not Active | Not Active | – | – | – | –
O=C(O)Cc1ccc(-c2ccccc2)cc1 [FELBINAC] | Not Active | Not Active | Not Active | Not Active | Not Active | Not Active | Not Active | Not Active | – | – | – | –
O=C(O)c1cccnc1 [NIACIN] | Not Active | Not Active | Not Active | Not Active | Not Active | Not Active | Not Active | Not Active | – | – | – | –
C[C@H](C(=O)O)c1cccc(C(=O)c2ccccc2)c1 [DEXKETOPROFEN] | Not Active | Not Active | Not Active | Not Active | Not Active | Not Active | Not Active | Not Active | – | – | – | –
CC[C@H]1OC(=O)[C@H](C)[C@@H](O[C@H]2C[C@@](C)(OC)[C@@H](O)[C@H](C)O2)[C@H](C)[C@@H](O[C@@H]2O[C@H](C)C[C@H](N(C)C)[C@H]2O)[C@](C)(OC)C[C@@H](C)C(=O)[C@H](C)[C@@H](O)[C@]1(C)O [CLARITHROMYCIN] | Not Active | Not Active | Not Active | Not Active | Not Active | Not Active | Not Active | Not Active | – | – | – | –
